The target of this assay is T1, CYP1A2 (Homo sapiens, UniProt P05177).
T1 sequence (P05177 1-516): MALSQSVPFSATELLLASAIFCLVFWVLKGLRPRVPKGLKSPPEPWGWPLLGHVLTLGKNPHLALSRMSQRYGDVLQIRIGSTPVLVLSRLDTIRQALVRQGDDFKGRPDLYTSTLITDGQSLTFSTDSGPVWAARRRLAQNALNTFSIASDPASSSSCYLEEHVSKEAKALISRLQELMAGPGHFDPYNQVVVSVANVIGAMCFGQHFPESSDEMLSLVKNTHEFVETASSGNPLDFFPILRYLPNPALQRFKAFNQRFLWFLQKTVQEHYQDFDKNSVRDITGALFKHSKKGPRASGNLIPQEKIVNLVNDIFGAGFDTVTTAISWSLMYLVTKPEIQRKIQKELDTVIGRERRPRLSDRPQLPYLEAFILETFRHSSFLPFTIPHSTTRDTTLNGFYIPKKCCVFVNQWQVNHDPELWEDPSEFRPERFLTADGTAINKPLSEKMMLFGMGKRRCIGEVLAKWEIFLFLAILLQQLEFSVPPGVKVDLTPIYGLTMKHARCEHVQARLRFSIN
Nature of the assay: Cytochrome p450 inhibition assessment, CYP1A2. It counts as in vitro ADME. The settings on record: estimated. Here is the method:
The ability of test compounds to inhibit five major human cytochrome p450 isozymes was evaluated. Cytochrome p450 inhibition assays were performed on 96-well microtiter assay plates according to the protocols described in Gentest P450 inhibition instruction manuals. The assays were performed in duplicate at 8 concentrations with the upper concentration of 100 μM followed by a 1:3 serial dilution. Reactions were initiated by the addition of 100 μL of enzyme/substrate mix to 100 μL of cofactor/serial dilution mix, and terminated by addition of 75 μL of a 4:1 acentonitrile: 0.5 M Tris base solution or by 2N NaOH for CYP3A4/DBF. Fluorescence was measured using a fluorescence plate reader (FLUOstar model 403, BMG Lab Technologies, Durham, N.C.). For reactions with inhibition greater than 50%, IC50 values were determined by fitting the data to the Hill equation using software GraphPad Prism (Version 4.02, GraphPad Software, San Diego, Calif.).

As usually defined, the IC50 is the midpoint of a concentration-inhibition curve. With `O=C(Nc1ccc(C(F)(F)F)cc1)c1ccc(-c2ncccc2Cl)cc1` [Compound 18, 4-(3-Chloropyridin-2-yl)-N-(4-trifluoromethyl-phenyl)benzamide], the IC50 was 97.5 µM.

Values taken from patent US20050197364A1, “Amide compounds as ion channel ligands and uses thereof” (priority 2003, published 2005).
